This is an account of results in EP4186918A1 (Université de Rennes, priority 2021, dated 2023).

Data set [1] in a line: Sedimentation after polymerization (aggregative character). The conditions noted are these: 800 µM peptide; sedimentable peptide after polymerization as % of total concentration. The data set is classed as physicochemical. As to the method: (§1) After thawing, a pre-dilution in milli Q H2O filtered through 0.2 µm was carried out in order to obtain a solution at a concentration close to the working concentration, greater than 1.25 times. This stock solution was left to incubate for 1 hour in a water bath at 25°C, and was then assayed spectrophotometrically and adjusted to the final working concentration of 1.25 times. The polymerization was initiated by adding 1/4 of the volume of 5X fibrillation buffer (50 mM MOPS, 750 mM NaCl, pH = 7.2) for a final concentration of 1X fibrillation buffer (10 mM MOPS, 150 mM NaCl, PH = 7.2). The samples were left to incubate for 1.5-2 hours at 25°C in a water bath. The study of the polymerization by fluorimetry was carried out under the same conditions, except that the 5X polymerization buffer was supplemented with Thioflavin T (ThT) at 100 µM in order to be able to observe the fluorescence. • (a) Determination of the Aggregative Character of the Peptides. […] The concentration of the supernatant was determined using the Beer-Lambert law A = ε x 1 x C; ε (peptides) = 1450 M^-1cm^-1. […] The fluorescence of the sample was then measured immediately after dilution by recording a fluorescence spectrum (470 nm to 600 nm) at an excitation wavelength of 450 nm (Perkin Elmer LS 55, PM 750, slit10).

Data set [2] is described as follows: Thioflavin T fluorescence after polymerization (amyloidogenic character). The data set is classed as physicochemical. The conditions noted are these: 800 µM peptide; ThT fluorescence normalized to 1p = 100%. As to the method: as §1
The next data set deals with VQIVYK (PHF6). Briefly: Polymerization kinetics of 1p with selected peptides, ThT spectrofluorimetry. The format is biochemical, human. As to the method: (§2) After thawing, a pre-dilution of the peptides of interest in sterile water was carried out in order to obtain, for each peptide, a solution at a concentration close to the working concentration. The peptides were then left to incubate at 4°C overnight. On the day of the experiment, the peptide solutions were sonicated for 10 minutes, left to stand for one hour at room temperature, sonicated again for 10 minutes and assayed spectrophotometrically at 280 nm (ε = 1450 M^-1cm^-1). The UV spectra were previously normalized to 0 at 300 nm. The solutions were prepared at concentrations of peptides 1/4 above that desired in the end. The polymerization of VQIVYK was initiated by adding 1/4 of the volume of fibrillation buffer 5X for a final concentration of fibrillation buffer 1X (10 mM MOPS, 150 mM NaCl, pH = 7.2).
The analyses were carried out on a spectrofluorometer (LS 55 from Perkin Elmer) fitted with a 4-cell rack. Black quartz cells (0.2x1.0 cm) were used. Excitation and emission wavelengths were 450 nm and 480 nm, respectively, and the sensitivity (Photomultiplier "PM") was set at 800 V. The size of the slits was varied from 3 nm to 6 nm. Normalization of each kinetics was performed with respect to the position of the cell on the rack.
The results were first smoothed over 10 points with the "smooth" option of the KaleidaGraph software. After normalization with respect to the position of the cells in the rack, each start of kinetics was adjusted to 0 before the addition of the fibrillation buffer. Finally, the results of each kinetics were normalized relative to the fluorescence intensity of the 1p control after 100 minutes of polymerization considered to be 100%.

Data set [3] can be described thus: Garnier-Delamarche representation combining sedimentation and ThT fluorescence. The format is physicochemical. The conditions noted are these: from sedimentation and ThT fluorescence. As to the method:
as §1, with “slit10). […]” for “slit10).”

Data set [4] is described as follows: Polymerization kinetics of selected peptide alone, ThT spectrofluorimetry. The format is physicochemical. The conditions noted are these: 310 µM, ThT fluorescence. As to the method: as §2
The analyses were carried out on a spectrofluorometer (LS 55 from Perkin Elmer) fitted with a 4-cell rack. Black quartz cells (0.2x1.0 cm) were used. […]
The results were first smoothed over 10 points with the "smooth" option of the KaleidaGraph software. […] Finally, the results of each kinetics were normalized relative to the fluorescence intensity of the 1p control after 100 minutes of polymerization considered to be 100%.

Data set [5] in a line: Critical Assembly Concentration (CCa) by sedimentation. The conditions noted are these: batch of VQIVYK used in the study; fibrillation buffer 1X. The data set is classed as physicochemical. The protocol: The polymerization of VQIVYK was initiated by mixing the VQIVYK peptide (at various concentrations, 52 µM to 344 µM) with 1/4 of its volume in fibrillation buffer 5X. Once polymerized, the samples were sedimented at 16,900 g for 15 minutes. The concentration of free peptide was measured by assay nanodrop 800. The concentration of polymerized peptide was thus determined using the following the relation: [1p]pellet = [1p]initial −[1p]supernatant [formula]

Entries after “also recorded” stand apart in the source; their conditions may differ.

In the case of Ac-YQIVVK-NH2 [6tp, YQIVVK], the “% sedimentation” value in data set [1] turned out to be 0%. Further, the “% fluorescence” value in data set [2] was 1.3%. Also, the “category of polymerization kinetics of 1p in presence of peptide” value with VQIVYK (PHF6) ([1p] = 155 µM, [selected peptide] = 310 µM) is “slow compared to 1p alone and which have a lower fluorescence intensity”. In addition, in the data set with VQIVYK (PHF6) ([1p] = 155 µM, [selected peptide] = 310 µM, thresholds 50% rate, 100% fluorescence intensity), the “effect on polymerization of 1p” value is “clearly inhibited; also recorded: marked inhibitory effect”. The “classification of inhibitory effect (3 categories)” value with VQIVYK (PHF6) (inhibition of PHF6 aggregation) is reported as “with a strong inhibitory effect”. In addition, the “persistence of inhibitory effect” value with VQIVYK (PHF6) (polymerization followed for 15 hours) is “the inhibitory effect persisted”. In addition, the “amyloidogenic and aggregative character” value in data set [3] is “weakly amyloidogenic and weakly aggregative”. The “polymerization of peptide alone” value in data set [4] is “do not polymerize on their own”.
Ac-VQIVYK-NH2 [1p, VQIVYK]: in data set [1], the “% sedimentation” value is on record as 94%. Moreover, in data set [2], the “% fluorescence” value amounted to 100%. The “Critical Assembly Concentration (CCa)” value in data set [5] is 32 µM. Further, the “amyloidogenic and aggregative character” value in data set [3] is “strong amyloidogenic and self-aggregative potential”.
